Results: publication PMC11870044, “Exploring the Antibacterial and Antiparasitic Activity of Phenylaminonaphthoquinones—Green Synthesis, Biological Evaluation and Computational Study” (International Journal of Molecular Sciences, 2024)
≈ marks a conversion by molar mass, not a printed value. Like-named read-outs stand apart in the source and are kept apart here.

How the values were obtained:
[1] = system: Plasmodium falciparum 3D7 (chloroquine-sensitive); experiment: In vitro antiplasmodial screening, parasitemia by flow cytometry; assay type: cell-based; design: Plasmodium falciparum 3D7 Growth Inhibition (%): concentration or dose not given beside the values; conditions: for Plasmodium falciparum 3D7 Growth Inhibition (%): mean ± SD; for IC50: Plasmodium falciparum
Description: (§1) The antimalarial activity assay was performed using Plasmodium falciparum 3D7 (chloroquine-sensitive) and FCR-3 (chloroquine-resistant) reference strains, which were cultured in vitro following the method described by Trager et al. with some modifications.
(§2) The experiments were performed in 96-well culture plates, where the stock solutions of compounds 1–12 (1, 0.1, 0.01, and 0.001 µg/mL) were tested. A total of 100 µL of each product was distributed in triplicate on the culture plates, and 100 µL of a red blood cell suspension (4% hematocrit, final parasitemia of 1% ring stage) was added, resulting in a final volume of 200 µL. The test plates were incubated at 37 °C for 48 h, and parasitemia was determined by flow cytometry (BDFACScalibur). Erythrocytes were taken from each well culture plate, and 100 µL of ethidium bromide (10 µg/mL) was added and incubated for 30 min. A total of 100,000 cells per well culture plate were acquired and analyzed. The IC50 of the pure products was determined by a regression curve of the percentage inhibition of parasite activity as a function of the logarithmic dose. Chloroquine diphosphate was used as the reference drug.

[2] = system: Enterococcus faecalis (ATCC 29212); experiment: Minimum inhibitory concentration, broth dilution method; assay type: cell-based
Description: (§3) The microorganisms used were Staphylococcus aureus (ATCC 25923), Proteus mirabilis (ATCC 12453) Enterococcus faecalis (ATCC 29212), Escherichia coli (ATCC 25922), Salmonella typhimurium (ATCC 19585), and Klebsiella pneumoniae (ATCC 700603).
(§4) The antimicrobial activity of the phenylaminonaphthoquinones 1–12 was determined by the broth dilution method. The following concentrations were tested: 200, 100, 50, 25, and 12.5 μg/mL. After incubation, the microbial growth was examined. The results are expressed in minimum inhibitory concentration (MIC), the lowest concentration of phenylaminonaphthoquinones with no visible growth. The bactericidal/bacteriostatic activity was determined by sub-cultivation of the samples in normal culture media at appropriate temperatures and incubation times. The MIC of each compound was performed in triplicate. The compounds 1–12 were dissolved in DMSO. Cefazolin and cefotaxime were used as positive controls at the same compound concentrations.

[3] = system: Escherichia coli (ATCC 25922); experiment: as above; assay type: cell-based
Description: as §3, §4

[4] = system: Klebsiella pneumoniae (ATCC 700603); experiment: as above; assay type: cell-based
Description: as §3, §4

[5] = system: Staphylococcus aureus (ATCC 25923); experiment: as above; assay type: cell-based; conditions: for MIC: Staphylococcus aureus; for MIC S. aureus G+: broth dilution
Description: as §3, §4

[6] = system: Proteus mirabilis (ATCC 12453); experiment: as above; assay type: cell-based
Description: as §3, §4

[7] = system: Salmonella typhimurium (ATCC 19585); experiment: as above; assay type: cell-based; conditions: Salmonella enterica, read-out: MIC S. typhimurium G−
Description: as §3, §4

[8] = system: Plasmodium falciparum FCR-3 (chloroquine-resistant); experiment: In vitro antiplasmodial screening, parasitemia by flow cytometry; assay type: cell-based; design: Plasmodium falciparum FCR-3 Growth Inhibition (%): concentration or dose not given beside the values; conditions: for Plasmodium falciparum FCR-3 Growth Inhibition (%): mean ± SD; for IC50: Plasmodium falciparum, read-out: Plasmodium falciparum FCR-3 IC50
Description: as §1, §2

[9] = Experimental log P, shake-flask method n-octanol/water; assay type: physicochemical; conditions: 25 ± 1 °C
Description: The mixture was then allowed to stand for 24 h at the same temperature for further phase separation. A stock solution with a concentration of 0.01 mol per liter in water, pre-saturated with n-octanol, was prepared for each compound. Duplicate test vessels containing a mixture of the stock solution and n-octanol (pre-saturated with water) were shaken on a vortex shaker for 5 min. Phase separation was achieved by centrifugation of the vessels for 3 min at 4000× g (25 ± 1 °C), and the concentration of the solute in the water phase (C water) was measured from their absorbance at 205 nm using a UV spectrophotometer. The partition coefficient was calculated using the following equation. Log Po/w = Log(C n-octanol/C water)
All the measurements were carried out at room temperature (25 ± 1 °C). In order to check the performance of the method, aniline was used as a reference substance.

P. falciparum 3D7 = system: P. falciparum 3D7; design: method as in PMID 33333397; conditions: literature compounds of Figure 2; read-out: IC50 against the 3D7 strain; cited from earlier work
[10] = 3D7 chloroquine-sensitive, 48 h
[11] = 3D7 chloroquine-sensitive, 48 h, read-out: Plasmodium falciparum 3D7 IC50
[12] = ATCC29212, broth dilution, triplicate, read-out: MIC E. faecalis G+
[13] = ATCC25922, broth dilution, triplicate, read-out: MIC E. coli G−
[14] = ATCC700603, broth dilution, triplicate, read-out: MIC K. pneumonia G−
[15] = ATCC25923, broth dilution, triplicate, read-out: MIC S. aureus G+
[16] = ATCC12453, broth dilution, triplicate, read-out: MIC P. mirabilis G+
[17] = FCR-3 chloroquine-resistant, 48 h
[18] = FCR3, FCR-3 chloroquine-resistant, 48 h
[19] = 3D7, 48 h, read-out: Plasmodium falciparum 3D7 IC50
[20] = ATCC29212, read-out: MIC E. faecalis G+
[21] = ATCC25922, read-out: MIC E. coli G−
[22] = ATCC700603, read-out: MIC K. pneumonia G−
[23] = ATCC25923, read-out: MIC S. aureus G+, broth dilution, triplicate
[24] = ATCC12453, read-out: MIC P. mirabilis G+

| SMILES | Plasmodium falciparum 3D7 Growth Inhibition (%) [1, 10] | IC50 [1, 11] | MIC [2, 12] | MIC [3, 13] | MIC [4, 14] | MIC [5, 15] | MIC S. aureus G+ ([5]; triplicate) | MIC [6, 16] | MIC ([7]; broth dilution, triplicate) | Plasmodium falciparum FCR-3 Growth Inhibition (%) [8, 17] | IC50 [8, 18] | logP [9] | further results |
| --- | --- | --- | --- | --- | --- | --- | --- | --- | --- | --- | --- | --- | --- |
| Cc1ccccc1NC1=CC(=O)c2ccccc2C1=O [Compound 3] | 98.0 ± 1.0% | 0.0049 µg/mL | 50 µg/mL (≈ 190 µM) | 25.5 µg/mL (≈ 96.8 µM) | 26.3 µg/mL (≈ 99.9 µM) | 3.2 to 5.7 µg/mL (≈ 12.2 to 21.6 µM) | 3.8 µg/mL (≈ 14.4 µM) | 19.9 µg/mL (≈ 75.6 µM) | 13.2 µg/mL (≈ 50.1 µM) | 97.0 ± 0.2% | 0.12 µg/mL (≈ 0.456 µM) | 1.89 ± 1.12 | Enhancement of antiplasmodial activity versus literature 2-amino/2-phenylaminonaphthoquinones ([1]; 3D7 strain, equimolar comparison): more than 250 fold; Potency relative to chloroquine against 3D7 strain ([1]; IC50 0.0049 vs 0.06 μg/mL): more than 10 fold; IC50 ([1]; 3D7, read-out: IC50 against 3D7 strain at equimolar concentrations): 18.6 nM |
| O=C1C(Cl)=C(Nc2ccc(O)cc2)C(=O)c2ccccc21 [Compound 6] | 41.0 ± 2.0% | > 1 µg/mL | 49.9 µg/mL (≈ 166 µM) | 39.8 µg/mL (≈ 133 µM) | 40 µg/mL (≈ 133 µM) | 19.6 µg/mL (≈ 65.4 µM) |  | 29.9 µg/mL (≈ 99.8 µM) | 20 µg/mL (≈ 66.7 µM) | 56.0 ± 3.0% | 0.87 µg/mL (≈ 2.9 µM) | 1.22 ± 0.13 |  |
| O=C1C(Cl)=C(Nc2ccccc2)C(=O)c2ccccc21 [Compound 2] | 37.0 ± 1.0% | > 1 µg/mL | > 50 µg/mL | > 50 µg/mL | > 50 µg/mL | 36.5 µg/mL (≈ 129 µM) |  | 39.9 µg/mL (≈ 141 µM) | > 50 µg/mL | 13.0 ± 2.0% | > 1 µg/mL | 1.61 ± 0.11 |  |
| O=C1C=C(Nc2ccc(O)cc2)C(=O)c2ccccc21 [Compound 5] | 18.0 ± 1.0% |  |  |  |  |  | 3.2 µg/mL (≈ 12.1 µM) |  |  | 61.0 ± 2.0% |  | 1.17 ± 0.81 | IC50 [1, 19]: > 1 µg/mL; MIC [2, 20]: > 50 µg/mL; MIC [3, 21]: > 50 µg/mL; MIC [4, 22]: > 50 µg/mL; MIC [5, 23]: 3.2 to 5.7 µg/mL (≈ 12.1 to 21.5 µM); MIC [6, 24]: 24.8 µg/mL (≈ 93.5 µM); MIC [7]: > 50 µg/mL; IC50 ([8]; FCR3, 48 h): 0.78 µg/mL (≈ 2.94 µM) |
| Cc1nnc(SCC2=C(C(=O)O)N3C(=O)[C@@H](NC(=O)Cn4cnnn4)[C@H]3SC2)s1 [CFZ, cefazolin, reference compound] |  |  | 8.4 µg/mL (≈ 18.5 µM) | > 50 µg/mL | 8.5 µg/mL (≈ 18.7 µM) | 4.2 µg/mL (≈ 9.24 µM) |  | 5.6 µg/mL (≈ 12.3 µM) | 7.1 µg/mL (≈ 15.6 µM) |  |  |  |  |
| COc1ccc(NC2=CC(=O)c3ccccc3C2=O)cc1 [Compound 7] | 49.0 ± 2.0% |  |  |  |  |  | 5.7 µg/mL (≈ 20.4 µM) |  |  | 57.0 ± 1.0% |  | 1.39 ± 0.15 | IC50 [1, 19]: > 1 µg/mL; MIC [2, 20]: 31.2 µg/mL (≈ 112 µM); MIC [3, 21]: > 50 µg/mL; MIC [4, 22]: 37.3 µg/mL (≈ 134 µM); MIC [5, 23]: 3.2 to 5.7 µg/mL (≈ 11.5 to 20.4 µM); MIC [6, 24]: 18.4 µg/mL (≈ 65.9 µM); MIC [7]: 29.9 µg/mL (≈ 107 µM); IC50 ([8]; FCR3, 48 h): 0.88 µg/mL (≈ 3.15 µM) |
| NC1=CC(=O)c2ccccc2C1=O [Compound 2-amino] |  |  |  |  |  |  |  |  |  |  |  |  | IC50 (P. falciparum 3D7): 5.14 µM |
| Cc1ccccc1NC1=C(Cl)C(=O)c2ccccc2C1=O [Compound 4] | 42.0 ± 2.0% | > 1 µg/mL | 37.1 µg/mL (≈ 125 µM) | > 50 µg/mL | 44.6 µg/mL (≈ 150 µM) | > 50 µg/mL |  | 40.9 µg/mL (≈ 137 µM) | 32.5 µg/mL (≈ 109 µM) | 56.0 ± 1.0% | 0.86 µg/mL (≈ 2.89 µM) | 2.2 ± 0.13 |  |
